Reference: ChEMBL document CHEMBL5352436, “Triterpenoid pyrazines and pyridines - Synthesis, cytotoxicity, mechanism of action, preparation of prodrugs” (Eur J Med Chem, 2022)
pIC50: −log10 of the molar value.

Experiments:
A549 = assay: Cytotoxicity against human A549 cells assessed as reduction in cell viability incubated for 72 hrs by MTS assay; type: functional, cell-based; conditions: A549, 72 h
U2OS = assay: Cytotoxicity against human U2OS cells assessed as reduction in cell viability incubated for 72 hrs by MTS assay; type: functional, cell-based
K562 = assay: Cytotoxicity against human K562 cells assessed as reduction in cell viability incubated for 72 hrs by MTS assay; type: functional, cell-based; conditions: K562, 72 h
[1] = Cytotoxicity against human HCT116-p53-null cells assessed as reduction in cell viability incubated for 72 hrs by MTS assay; type: functional, cell-based
HCT-116 = assay: Cytotoxicity against human HCT-116 cells assessed as reduction in cell viability incubated for 72 hrs by MTS assay; type: functional, cell-based; conditions: HCT-116, 72 h
[2] = Cytotoxicity against human K562-Tax cells assessed as reduction in cell viability incubated for 72 hrs by MTS assay; type: functional, cell-based
[3] = Cytotoxicity against human MRC5 cells assessed as reduction in cell viability incubated for 72 hrs by MTS assay; type: toxicity, cell-based
[4] = Cytotoxicity against human BJ cells assessed as reduction in cell viability incubated for 72 hrs by MTS assay; type: toxicity, cell-based
CEM-DNR = assay: Cytotoxicity against human CEM-DNR cells assessed as reduction in cell viability incubated for 72 hrs by MTS assay; type: functional, cell-based
CCRF-CEM = assay: Cytotoxicity against human CCRF-CEM cells assessed as reduction in cell viability incubated for 72 hrs by MTS assay; type: functional, cell-based

C[C@H]1[C@H](C)CC[C@]2(C(=O)O)CC[C@]3(C)C(=CC[C@@H]4[C@@]5(C)Cc6cccnc6C(C)(C)[C@@H]5CC[C@]43C)[C@H]12
pIC50 (A549): < 4.30
pIC50 (U2OS): < 4.30
pIC50 (K562): 4.49
pIC50 [1]: < 4.30
pIC50 (HCT-116): < 4.30
pIC50 [2]: 4.33
IC50 at 72 h [3]: > 50 µM
IC50 at 72 h [4]: > 50 µM
pIC50 (CEM-DNR): 4.40
pIC50 (CCRF-CEM): 4.42

Cc1oc(=O)oc1COC(=O)[C@]12CC[C@@H](C(C)C)[C@@H]1[C@H]1CC[C@@H]3[C@@]4(C)Cc5cccnc5C(C)(C)[C@@H]4CC[C@@]3(C)[C@]1(C)CC2
pIC50 (A549): < 4.30
pIC50 (U2OS): < 4.30
pIC50 (K562): 7.37
pIC50 [1]: < 4.30
pIC50 (HCT-116): < 4.30
pIC50 [2]: < 4.30
IC50 at 72 h [3]: > 50 µM
IC50 at 72 h [4]: > 50 µM
pIC50 (CEM-DNR): 4.30
pIC50 (CCRF-CEM): 4.34

C=C(C)[C@@H]1CC[C@]2(C(=O)O)CC[C@]3(C)[C@H](CC[C@@H]4[C@@]5(C)CCC(=O)C(C)(C)[C@@H]5CC[C@]43C)[C@@H]12 [BETUNOLIC ACID]
pIC50 [1]: 4.31
pIC50 [2]: 4.82
IC50 at 72 h [4]: 39 µM
pIC50 (CEM-DNR): 4.96

C#CCOC(=O)[C@]12CC[C@@H](C(=C)C=O)[C@@H]1[C@H]1CC[C@@H]3[C@@]4(C)CC[C@H](O)C(C)(C)[C@@H]4CC[C@@]3(C)[C@]1(C)CC2
pIC50 (A549): 5.89
pIC50 (U2OS): 5.80
pIC50 (K562): 5.74
pIC50 [1]: 5.82
pIC50 (HCT-116): 5.77
pIC50 [2]: 5.89
IC50 at 72 h [3]: 1.7 µM
IC50 at 72 h [4]: 7.1 µM
pIC50 (CEM-DNR): 5.85
pIC50 (CCRF-CEM): 6.06

C=C(C)[C@@H]1CC[C@]2(C(=O)OCc3oc(=O)oc3C)CC[C@]3(C)[C@H](CC[C@@H]4[C@@]5(C)Cc6nccnc6C(C)(C)[C@@H]5CC[C@]43C)[C@@H]12
pIC50 (A549): 5.00
pIC50 (U2OS): 4.35
pIC50 (K562): < 4.30
pIC50 [1]: 4.31
pIC50 (HCT-116): 4.40
pIC50 [2]: 4.89
IC50 at 72 h [3]: > 50 µM
IC50 at 72 h [4]: > 50 µM
pIC50 (CEM-DNR): 6.31
pIC50 (CCRF-CEM): 5.44

CC1=CC[C@]2(C(=O)O)CC[C@]3(C)[C@H](CC[C@@H]4[C@@]5(C)Cc6nccnc6C(C)(C)[C@@H]5CC[C@]43C)[C@H]2[C@@H]1C
pIC50 (A549): 4.36
pIC50 (U2OS): 4.34
pIC50 (K562): 4.74
pIC50 [1]: 4.30
pIC50 (HCT-116): 4.32
pIC50 [2]: 5.00
IC50 at 72 h [3]: > 50 µM
IC50 at 72 h [4]: > 50 µM
pIC50 (CEM-DNR): 5.00
pIC50 (CCRF-CEM): 5.14

C[C@H]1[C@H](C)CC[C@]2(C(=O)O)CC[C@]3(C)C(=CC[C@@H]4[C@@]5(C)Cc6nccnc6C(C)(C)[C@]5(C)CC[C@]43C)[C@H]12
pIC50 (A549): < 4.30
pIC50 (U2OS): < 4.30
pIC50 (K562): < 4.30
pIC50 [1]: < 4.30
pIC50 (HCT-116): 4.30
pIC50 [2]: 4.36
IC50 at 72 h [3]: > 50 µM
IC50 at 72 h [4]: > 50 µM
pIC50 (CEM-DNR): 4.77
pIC50 (CCRF-CEM): 4.72

CC1(C)C=C2[C@H]3CC[C@@H]4[C@@]5(C)Cc6nccnc6C(C)(C)[C@@H]5CC[C@@]4(C)[C@]3(C)CC[C@@]2(C(=O)O)CC1
pIC50 (A549): < 4.30
pIC50 (U2OS): < 4.30
pIC50 (K562): < 4.30
pIC50 [1]: < 4.30
pIC50 (HCT-116): 4.40
pIC50 [2]: 4.60
IC50 at 72 h [3]: > 50 µM
IC50 at 72 h [4]: > 50 µM
pIC50 (CEM-DNR): 4.54
pIC50 (CCRF-CEM): 4.82

CC1(C)CC[C@]23CC[C@]4(C)[C@H](CC[C@@H]5[C@@]6(C)Cc7nccnc7C(C)(C)[C@@H]6CC[C@]54C)[C@H]2[C@H]1OC3
pIC50 (A549): < 4.30
pIC50 (U2OS): < 4.30
pIC50 (K562): < 4.30
pIC50 [1]: < 4.30
pIC50 (HCT-116): < 4.30
pIC50 [2]: < 4.30
IC50 at 72 h [3]: > 50 µM
IC50 at 72 h [4]: > 50 µM
pIC50 (CEM-DNR): < 4.30
pIC50 (CCRF-CEM): < 4.30

CC1(C)C=C2[C@H]3CC[C@@H]4[C@@]5(C)CCC(=O)C(C)(C)[C@@H]5CC[C@@]4(C)[C@]3(C)CC[C@@]2(C(=O)O)CC1 [MORONIC ACID]
pIC50 (A549): 4.33
pIC50 (U2OS): < 4.30
pIC50 (K562): < 4.30
pIC50 [1]: < 4.30
pIC50 (HCT-116): 4.35
pIC50 [2]: 4.68
IC50 at 72 h [3]: > 50 µM
IC50 at 72 h [4]: > 50 µM
pIC50 (CEM-DNR): 4.77
pIC50 (CCRF-CEM): 4.77

CC1(C)CC[C@]2(C(=O)O)CC[C@]3(C)C(=CC[C@@H]4[C@@]5(C)Cc6nccnc6C(C)(C)[C@@H]5CC[C@]43C)[C@@H]2C1
pIC50 (A549): 4.30
pIC50 (U2OS): < 4.30
pIC50 (K562): < 4.30
pIC50 [1]: < 4.30
pIC50 (HCT-116): 4.30
pIC50 [2]: 4.47
IC50 at 72 h [3]: > 50 µM
IC50 at 72 h [4]: > 50 µM
pIC50 (CEM-DNR): 4.85
pIC50 (CCRF-CEM): 4.74

C=C(C)[C@@H]1CC[C@]2(C(=O)OCc3oc(=O)oc3C)CC[C@]3(C)[C@H](CC[C@@H]4[C@@]5(C)Cc6cccnc6C(C)(C)[C@@H]5CC[C@]43C)[C@@H]12
pIC50 (A549): 4.30
pIC50 (U2OS): < 4.30
pIC50 (K562): 7.43
pIC50 [1]: < 4.30
pIC50 (HCT-116): < 4.30
pIC50 [2]: 4.31
IC50 at 72 h [3]: > 50 µM
IC50 at 72 h [4]: > 50 µM
pIC50 (CEM-DNR): 4.32
pIC50 (CCRF-CEM): 4.46

CC1(C)CC[C@]2(C(=O)O)CC[C@]3(C)C(=CC[C@@H]4[C@@]5(C)CCC(=O)C(C)(C)[C@@H]5CC[C@]43C)[C@@H]2C1 [OLEANONIC ACID]
pIC50 (K562): < 4.30
pIC50 [1]: < 4.30
pIC50 [2]: 4.68
IC50 at 72 h [3]: > 50 µM
IC50 at 72 h [4]: > 50 µM
pIC50 (CEM-DNR): 4.77
pIC50 (CCRF-CEM): 5.02

CC1(C)CC[C@]2(C(=O)O)CC[C@]3(C)C(=CC[C@@H]4[C@@]5(C)Cc6cccnc6C(C)(C)[C@@H]5CC[C@]43C)[C@@H]2C1
pIC50 (A549): < 4.30
pIC50 (U2OS): < 4.30
pIC50 (K562): 4.89
pIC50 [1]: < 4.30
pIC50 (HCT-116): < 4.30
pIC50 [2]: < 4.30
IC50 at 72 h [3]: > 50 µM
IC50 at 72 h [4]: > 50 µM
pIC50 (CEM-DNR): < 4.30
pIC50 (CCRF-CEM): 4.41

CC1=CC[C@]2(C(=O)O)CC[C@]3(C)[C@H](CC[C@@H]4[C@@]5(C)CCC(=O)C(C)(C)[C@@H]5CC[C@]43C)[C@H]2[C@@H]1C
pIC50 (A549): 4.62
pIC50 (U2OS): 4.62
pIC50 (K562): 5.07
pIC50 [1]: 4.46
pIC50 (HCT-116): 4.49
pIC50 [2]: 4.55
IC50 at 72 h [3]: 33 µM
IC50 at 72 h [4]: 35 µM
pIC50 (CEM-DNR): 4.96
pIC50 (CCRF-CEM): 5.19

CC1=CC[C@]2(C(=O)O)CC[C@]3(C)C(=CC[C@@H]4[C@@]5(C)Cc6cccnc6C(C)(C)[C@@H]5CC[C@]43C)[C@H]2[C@@H]1C
pIC50 (A549): 4.70
pIC50 (U2OS): 4.46
pIC50 (K562): 4.92
pIC50 [1]: 4.47
pIC50 (HCT-116): 4.47
pIC50 [2]: 4.89
IC50 at 72 h [3]: > 50 µM
IC50 at 72 h [4]: > 50 µM
pIC50 (CEM-DNR): 4.96
pIC50 (CCRF-CEM): 5.20

CC(C)[C@@H]1CC[C@]2(C(=O)O)CC[C@]3(C)[C@H](CC[C@@H]4[C@@]5(C)CCC(=O)C(C)(C)[C@@H]5CC[C@]43C)[C@@H]12 [DIHYDROBETULONIC ACID]
pIC50 (U2OS): 4.57
pIC50 [1]: 4.44
pIC50 [2]: 4.96
IC50 at 72 h [3]: > 50 µM
IC50 at 72 h [4]: > 50 µM
pIC50 (CEM-DNR): 4.32
pIC50 (CCRF-CEM): 5.20
